Patent US20180153826A1, “MATERIALS AND METHODS FOR THE TREATMENT OF CYSTIC FIBROSIS” (UNIVERSITY OF FLORIDA RESEARCH FOUNDATION, INC., priority 2015, published 2018)

Legend:
[1] = tested on: ENaC; experiment: ENaC activity as amiloride-sensitive bumetanide-insensitive Isc, weanling distal colon; design: species or system rat; settings: 10 μM; 2-3 week old rat distal colon
Experimental: FIG. 17. The inhibitory effect of […] on ENaC was examined electrophysiologically by measuring amiloride-sensitive short-circuit current responses in the presence or absence of […]. Weanling infant distal colonic mucosa, which expresses highest activity of ENaC, is employed and mounted in Ussing chamber. FIGS. 19A-19C. […] Here, the activity of ENaC is measured as amiloride-sensitive bumetanide-insensitive Isc. […] FIGS. 20A-20C. […] The activity of ENaC was measured as amiloride-sensitive bumetanide-insensitive Isc. […] Secretory Cl current is mediated by apical CFTR. This Cl secretory Isc is sensitive to bumetanide, applied to the basolateral side of the epithelium. There, bumetanide inhibits Cl entry from blood into the cell; thus, in the presence of bumetanide, the secretory Cl current is eliminated. Absorptive Na current is mediated by apically located epithelial Na channel (ENaC). This latter current is particularly high in this weanling age and is sensitive to amiloride, when it is applied luminally.

[2] = tested on: SCFA/HCO3^− exchange; experiment: SCFA/HCO3^− exchange activity (isobutyrate-dependent HCO3^− secretion); design: species or system rat; settings: 10 μM serosa; 25 mM isobutyrate lumen
Experimental: (§1) Stripped mucosal sheets were mounted into Ussing chambers (window area=0.3-0.5 cm^2, Physiologic Instruments, San Diego, Calif.). The mucosal side of tissue was bathed with an unbuffered HCO3^−-free Cl^− Ringer solution (see Table 2 for detailed composition) circulated by a gas lift with 100% O2 while the serosal side was bathed with buffered Cl^− Ringer solution (pH 7.4) that contained 25 mM HCO3^− and gassed with 5% CO2/95% O2. Each side contained 3-5 ml of solution and the temperature of the solution was adjusted to and maintained at 37° C. by heated water-jacketed reservoirs. […]
(§2) Two types of approaches were used in the measurement of colonic HCO3^− secretion, namely, measurement of lumen pH or pH stat titration of net alkalinization by colonic mucosa. […] The amount of the acid delivered per unit time per surface area was used to quantitate HCO3^− secretion by the mucosa. Measurements were recorded continuously and mean values for consecutive 5 or 10 min periods were averaged. The rate of HCO3^− secretion (JHCO3) is expressed as μEq/hr/cm^2. The short-circuit current (Isc) was measured in microamperes (μA) and converted into μEq/hr/cm^2. Tissue resistance (R, Ω cm^2) was calculated from Ohm's law.
SCFA/HCO3^− exchange activity was calculated as ΔJHCO3 (the difference between JHCO3 in the presence minus absence of luminal isobutyrate).

[3] = tested on: CFTR-mediated and non CFTR-mediated HCO3^− secretion; experiment: Isc and pH stat HCO3^− secretion with/without lumen Cl^−, CFTR inhibitors or DIDS (FIGS. 5, 6)
From the text: FIG. 3. Experimental approach 1: The Ussing chamber pH-stat set up used to monitor and measure HCO3^- secretion by colonic mucosa. FIG. 4. Experimental Approach 2: Measurement of HCO3^- secretion by colonic mucosa in the presence of apical NPPB/Glibenclamide. FIGS. 5A-5F. Activation of CaSR by […] inhibits CFTR-mediated HCO3^- secretion (JHCO3) and ISC but stimulates non CFTR-mediated HCO3^- secretion (JHCO3) and Isc. Physiological approach assayed with, versus without, lumen Cl^-. FIGS. 6A-6F. Activation of CaSR by […] inhibits CFTR-mediated HCO3^- secretion (JHCO3) and ISC but stimulates CFTR-independent HCO3^- secretion (JHCO3) and Isc. Pharmacological approach assayed with, and without, CFTR transporter inhibitors or AE inhibitor DIDS.

[4] = tested on: cAMP-dependent HCO3^− secretion; experiment: Cyclic nucleotide (cAMP)-dependent HCO3^− secretion, lumen Cl^−/SCFA-free; design: species or system rat
Experimental: Stripped mucosal sheets were mounted into Ussing chambers (window area=0.3-0.5 cm^2, Physiologic Instruments, San Diego, Calif.). The mucosal side of tissue was bathed with an unbuffered HCO3^--free Cl^- Ringer solution (see Table 2 for detailed composition) circulated by a gas lift with 100% O2 while the serosal side was bathed with buffered Cl^- Ringer solution (pH 7.4) that contained 25 mM HCO3^- and gassed with 5% CO2/95% O2. Each side contained 3-5 ml of solution and the temperature of the solution was adjusted to and maintained at 37° C. by heated water-jacketed reservoirs. Experiments were performed under short-circuit conditions (Voltage-Current Clamp, VCC MC8; Physiologic Instruments, San Diego, Calif.) to maintain the transepithelial potentials at 0 mV, except for brief interruption at 20-second intervals for recording of open-circuit potential (VT, mV). Two types of approaches were used in the measurement of colonic HCO3^- secretion, namely, measurement of lumen pH or pH stat titration of net alkalinization by colonic mucosa. […] Radiometer Analytical, Villeurbanne, France). The amount of the acid delivered per unit time per surface area was used to quantitate HCO3^- secretion by the mucosa. Measurements were recorded continuously and mean values for consecutive 5 or 10 min periods were averaged. […] The short-circuit current (Isc) was measured in microamperes (μA) and converted into μEq/hr/cm^2. Tissue resistance (R, Ω cm^2) was calculated from Ohm's law. Colon segments were prepared and treated as in the secretagogue-induced HCO3^- secretion experiments except that they were bathed luminally with HCO3^--free Ringer solution that contained no isobutyrate and no Cl^-. Cyclic nucleotide-dependent HCO3^- secretion was calculated as […] (the difference between JHCO3 after minus JHCO3 before the addition of forskolin). When inhibitor was used, it was added at 30 min before […] or forskolin.

[5] = tested on: Cl^−/HCO3^− exchange; experiment: Cl^−/HCO3^− exchange activity (Cl^−-dependent HCO3^− secretion); design: species or system rat; settings: 10 μM, added to serosal side
Experimental: as §1
as §2, with “law. […]” for “law.”

## COc1cccc([C@@H](C)NCCCc2ccccc2Cl)c1.Cl [R568, 2-Chloro-N-[(1R)-1-(3-methoxyphenyl)ethyl]-benzenepropanamine hydrochloride]
[1]
  bumetanide-insensitive amiloride-inhibitable ENaC-mediated basal Isc: inhibited
[2]
  isobutyrate-dependent HCO3^− secretion: significantly stimulated
[3]; absence of lumen Cl^−
  HCO3^− secretion (pH stat): net inhibition
  phase I Isc stimulation induced by R568: abolished
  phase II Isc inhibition: remained unchanged or slightly reduced
[3]; presence of lumen Cl^−
  HCO3^− secretion (pH stat): net stimulation
  Isc response: two-phase response
[4]; 10 μM serosa after forskolin, lumen Cl^−/SCFA-free
  effect on FSK-induced HCO3^− secretion: almost completely reversed
[4]; no serosal HCO3^− (data not shown)
  Isc response in the absence of serosal HCO3^−: failed to stimulate or to inhibit
[4]; subsequent addition after forskolin, lumen Cl^−-free
  effect on forskolin-stimulated Isc: inhibited
[5]
  Cl^−/HCO3^− exchange activity: stimulation
